Data reported in paper doi:10.1101/2022.03.22.485260v1 (biorxiv, 2022).
Read-outs that look alike come from different tables or passages of the source.

How the values were obtained:
[1] = target: T1, hTMPK (thymidylate kinase) (Homo sapiens, UniProt P23919); assay: NADH-coupled; type: biochemical
T1 sequence (P23919 2-212): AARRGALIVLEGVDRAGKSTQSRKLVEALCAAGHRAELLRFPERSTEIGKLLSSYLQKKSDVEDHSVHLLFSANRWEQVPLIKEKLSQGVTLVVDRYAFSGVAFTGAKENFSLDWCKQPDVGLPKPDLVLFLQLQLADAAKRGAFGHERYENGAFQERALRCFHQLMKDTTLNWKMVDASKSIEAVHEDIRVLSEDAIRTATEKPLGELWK

[2] = target: T1, hTMPK (thymidylate kinase); assay: NADH-coupled assay, […] min pre-incubation, non-linear fit; type: biochemical; conditions: ATP varied 0-200 μM, 500 μM TMP; mixed inhibition; pH 7.5, 25 °C

Compound	IC50 [1]	Ki [2]	IC50 ([1]; 500 μM ATP, 500 μM dTMP, 10 mM MgCl2, pH 7.5, 25 °C)
CC(C)(C)OC(=O)N1CCN(C(=O)Cn2sc3ccccc3c2=O)CC1 [JMF2977]	0.5 µM		
Tert-butyl 4-(2-(5-fluoro-3-oxobenzo[d]isothiazol-2(3H)-yl) acetyl) piperazine-1-carboxylate [JMF4073]		0.005 µM	0.16 µM
